# According to patent US3998811A, “Optically active 1,4-benzodiazepines and process for the preparation thereof” (CRC Compagnia di Recerca Chimica S.A., priority 1971, dated 1976):
# Tests used:
# mice [1] = test: Anticonvulsant effect against minimal electroshock, mice; assay type: in vivo; settings: relative to chlordiazepoxide = 1.00, larger value = less effective
# Experimental: (§1) The pharmacalogical activity of the novel compounds of this invention was evaluated by standard methods such as the anticonvulsant effect against pentylene tetrazole shock and maximal and minimal electroshock, muscle relaxing ability, the fighting test, and hypnotic effect. These standard test are described in detail in the literature, for example, in L. O. Randall, C. L. Schenkel, R. F. Banziger, Curr. Ther. Res., Clin. Exp., 590 (1965), and M. I. Gluckman, Curr. Ther. Res., Clin. Exp., 7,721 (1965).
# (§2) This Example illustrates the pharmacological effectiveness of the compounds of this invention. A number of the compounds of this invention were tested for their pharmacological effect on the CNS by the procedures described above. Also tested were the corresponding racemic mixtures and three commercial tranquillizers:
# (§3) The results of the tests are shown in Table IV wherein the relative potencies compared with that of chlordiazepoxide which is assigned an activity of 1.00. […] It can also be seen that the pharmaceutically active compounds of this invention compare favorably with some commercially useful tranquillizers and even surpass them in some respects.
# mice [2] = test: Muscle relaxation (muscle relaxing ability), mice; assay type: in vivo; settings: relative to chlordiazepoxide = 1.00, larger value = less effective
# Experimental: as §1, §2, §3
# mice [3] = test: Hypnotic effect, mice; assay type: in vivo; settings: relative to chlordiazepoxide = 1.00, larger value = less effective
# Experimental: as §1, §2, §3
# mice [4] = test: Anticonvulsant effect against maximal electroshock, mice; assay type: in vivo; settings: relative to chlordiazepoxide = 1.00, larger value = less effective
# Experimental: as §1, §2, §3
# mice [5] = test: Anticonvulsant effect against pentylene tetrazole shock, mice; assay type: in vivo; settings: relative to chlordiazepoxide = 1.00, larger value = less effective
# Experimental: as §1, §2, §3
# mice [6] = test: Fighting test, mice; assay type: in vivo; settings: relative to chlordiazepoxide = 1.00, larger value = less effective
# Experimental: as §1, §2, §3
# LD 50 P.O., mice = settings: mouse, in vivo, po
# experimental animals = settings: R- form; even at low dosages; cited from earlier work
# [7] = S- form; cited from earlier work
Structure (SMILES),"Relative potency, anticonvulsant effect, minimal electro shock (mice [1])","Relative potency, muscle relaxation (mice [2])","Relative potency, hypnotic effect (mice [3])","Relative potency, anticonvulsant effect, maximal electro shock (mice [4])","Relative potency, anticonvulsant effect, pentylene tetrazole (mice [5])","Relative potency, fighting test (mice [6])","LD50 (LD 50 P.O., mice)",known adverse effect in experimental animals (experimental animals),known pharmacological action [7]
CC1N=C(c2ccccc2)c2cc(Cl)ccc2N(C)C1=O (racemic) [26 (Rac.)],2.10,6.54,2.70,10.20,47.30,8.94,,,
C[C@@H]1N=C(c2ccccc2)c2cc(Cl)ccc2N(C)C1=O [26 (S)],0.10,0.70,0.80,0.90,5.80,1.00,2600 mg/kg,,
"CN1CCN=C(c2ccccc2)c2cc(Cl)ccc21 [Medazepam, 7-chloro-5-phenyl-1-methyl-1,2-dihydro-3H-1,4-benzodiazepine]",0.32,1.3,0.30,1.03,6.2,1.0,1420 mg/kg,,
C[C@@H](O)[C@@H]1N=C(c2ccccc2)c2cc(Cl)ccc2NC1=O [24 (S)],0.45,0.62,0.51,1.30,10.30,1.70,6000 mg/kg,,
O=C1Nc2ccc(Cl)cc2C(c2ccccc2)=N[C@H]1Cc1c[nH]c2ccccc12 [23 (S)],1.70,6.20,0.80,4.10,3.20,7.10,2300 mg/kg,,
CC1N=C(c2ccccc2)c2cc(Cl)ccc2NC1=O (racemic) [20 (Rac.)],5.00,9.60,2.30,8.20,30.40,10.4,,,
CN1C(=O)C(OCC(O)CO)N=C(c2ccccc2)c2cc(Cl)ccc21 (racemic) [31 (Rac.)],2.30,9.60,2.30,4.72,105.4,8.74,,,
O=C1Nc2ccc(Cl)cc2C(c2ccccc2)=N[C@H]1Cc1ccccc1 [21 (S)],2.30,4.10,2.10,4.82,5.30,4.50,1600 mg/kg,,
CC(O)C1N=C(c2ccccc2)c2cc(Cl)ccc2NC1=O (racemic) [24 (Rac.)],3.27,5.42,3.20,12.60,105.60,16.30,,,
O=C1Nc2ccc(Cl)cc2C(c2ccccc2)=N[C@H]1Cc1ccc(O)cc1 [22 (S)],1.42,4.30,4.20,6.30,7.3,5.70,1850 mg/kg,,
"CC[C@H](CO)NCCN[C@H](CC)CO [R- form, Ethambutole]",,,,,,,,"causes blindness in experimental animals, even at low dosages",
CC(C)[C@@H]1N=C(c2ccccc2)c2cc(Cl)ccc2NC1=O [25 (S)],0.30,1.15,0.80,1.75,1.80,1.40,1850 mg/kg,,
O=C1Nc2ccc(Cl)cc2C(c2ccccc2)=NC1Cc1ccccc1 (racemic) [21 (Rac.)],20.60,40.70,10.70,10.30,40.50,45.8,,,
CN1C(=O)C(OCC(O)CO)N=C(c2ccccc2)c2cc(Cl)ccc21 [31 (S)],,0.80,0.42,0.38,10.30,1.0,6000 mg/kg,,
O=C1Nc2ccc(Cl)cc2C(c2ccccc2)=NC1Cc1ccc(O)cc1 (racemic) [22 (Rac.)],16.70,46.20,18.60,65.40,75.6,56.30,,,
"CC[C@@H](CO)NCCN[C@@H](CC)CO [S- form of Ethambutole, Ethambutole]",,,,,,,,,anti-tuberculous agent
CC(C)C1N=C(c2ccccc2)c2cc(Cl)ccc2NC1=O (racemic) [25 (Rac.)],4.70,8.60,4.20,20.30,20.4,9.30,,,
"O=C1Nc2ccc(Cl)cc2C(c2ccccc2)=NC1O (stereo not drawn) [Oxazepam, 7-chloro-1,3-dihydro-3-hydroxy-5-phenyl-2H-1,4-benzodiazepine-2-one]",,0.62,,,,,3700 mg/kg,,
C[C@@H]1N=C(c2ccccc2)c2cc(Cl)ccc2NC1=O [20 (S)],0.20,1.0,0.4,1.32,4.1,1.0,2300 mg/kg,,
O=C1Nc2ccc(Cl)cc2C(c2ccccc2)=NC1Cc1c[nH]c2ccccc12 (racemic) [23 (Rac.)],14.60,60.50,8.30,38.70,30.60,80.30,,,
